Test results from patent US5574033A, “Heterocyclic compound and cardiotonic agent containing the same as effective component” (Zenyaku Kogyo Kabushiki Kaisha, priority 1991, dated 1996).
Where a name gives a salt, the structure may show the parent alone.

How the values were obtained:
[1] = Pharmacological Test 2: acute toxicity, tail vein administration, up-and-down method; settings: mouse, in vivo, iv, tail vein of ddY mice, in physiological saline solution
Protocol: (§1) Nos. of the compounds in the pharmacological tests 1 and 2 correspond to those in Examples referred to hereinafter.
The acute toxicity was determined by administrating the sample compound, which was dissolved by physiological saline solution, in the tail vein of ddY mice (5-weeks-old, having a body weight of 25 to 28 g) and LD50 was obtained by the up-and-down method.

[2] = test system: papillary muscles of a right ventricle; assay: Pharmacological Test 1: contraction of isolated right ventricular papillary muscles upon electric stimulation (inotropic effect); parameters: species or system male Hartley guinea pig; settings: 3×10^-5 M; percentage of increment of contractile force, isoprotelenol (1×10^-8 M) = 100%; 1 Hz stimulation, 30° C.
Protocol: as §1
(§2) A heart was removed from a male Hartley guinea pig (having a body weight of about 400 g or so) and a right atrium and papillary muscles of a right ventricle were separated from the removed heart. These preparations were suspended in 15 ml of Magnus' bath under load of 0.5 g (papillary muscles) or 1.0 g (right atria). Contraction of papillary muscles upon electric stimulation (1 Hz, 5 msec, 1.5×threshold voltage) and spontaneous contraction of the right atria were recorded through a transducer (manufactured by Orientec, T7-8-240) by a polygraph system (manufactured by NIHONKOHDEN, RMP-6008 and WT-685G).
(§3) Krebs-Henseleit solution was used as nutritive liquid bubbled with mixed gases of 95% O2 with 5% CO2 at 30° C. The value of inotropic effect is a percentage of increment of contractile force by samples when that by isoprotelenol (1×10^-8 M) is considered to be 100%. The value of chronotropic effect is a percentage of atrial rate after the injection of samples when the atrial rate before the injection is considered to be 100%.

[3] = test system: right atria; assay: Pharmacological Test 1: spontaneous contraction of isolated right atria (chronotropic effect); parameters: species or system male Hartley guinea pig; settings: Cavia porcellus; 3×10^-5 M; percentage of atrial rate after injection, rate before injection = 100%; 30° C.
Protocol: as §1, §2, §3

SMILES	LD50 [1] [mg/kg]	Inotropic Effect [2] [%]	activity at 30 µM [3] [%]
O=C1CSC(C2=CCN(CC(O)c3ccc(F)cc3)CC2)=NN1 (centres unmarked) [hydrochloride of compound 35, Hydrochloride of 2-[1-[2-(4-fluorophenyl)-2-hydroxyethyl]-1,2,5,6-tetrahydropyrid-4-yl]-4H,6H-1,3,4-thiadiazin-5-one]	226		
Cc1ccc(C(O)CN2CC=C(C3=NNC(=O)CS3)CC2)cc1 (centres unmarked) [hydrochloride of compound 21, Hydrochloride of 2-[1-[2-hydroxy-2-(4-methylphenyl)ethyl]-1,2,5,6-tetrahydropyrid-4-yl]-4H,6H-1,3,4-thiadiazin-5-one]	226		
Cc1cccc(C(O)CN2CC=C(C3=NNC(=O)CS3)CC2)c1 (centres unmarked) [hydrochloride of compound 20, Hydrochloride of 2-[1-[2-hydroxy-2-(3-methylphenyl)ethyl]-1,2,5,6-tetrahydropyrid-4-yl]-4H,6H-1,3,4-thiadiazin-5-one]	173		
O=C1CCC(C2=CCN(CC(O)c3ccc(F)cc3)CC2)=NN1 (centres unmarked) [Compound 51, 6-[1-[2-(4-Fluorophenyl)-2-hydroxyethyl]-1,2,5,6-tetrahydropyrid-4-yl]-4,5-dihydropyridazin-3 (2H)-one]		36.8	91.4
COc1cccc(C(O)CN2CC=C(C3=NNC(=O)CS3)CC2)c1 (centres unmarked) [Compound 7, 2-[1-[2-Hydroxy-2-(3-methoxyphenyl)ethyl]-1,2,5,6-tetrahydropyrid-4-yl]-4H,6H-1,3,4-thiadiazin-5-one]		54.0	95.2
O=C1CSC(C2=CCN(CC(O)c3ccccc3[N+](=O)[O-])CC2)=NN1 (centres unmarked) [Compound 29, 2-[1-[2-Hydroxy-2-(2-nitrophenyl)ethyl]-1,2,5,6-tetrahydropyrid-4-yl]-4H,6H-1,3,4-thiadiazin-5-one]		79.3	101
O=C1NN=C(c2ccncc2)CS1 [b, 5-(4-Pyridyl)-3H,6H-1,3,4-thiadiazin-2-one, reference compound]		36.2	117
Cc1ccc(C(O)CN2CC=C(C3=NNC(=O)CS3)CC2)c(C)c1 (centres unmarked) [hydrochloride of compound 25, Hydrochloride of 2-[1-[2-hydroxy-2-(2,4-dimethylphenyl)ethyl]-1,2,5,6-tetrahydropyrid-4-yl]-4H,6H-1,3,4-thiadiazin-5-one]	135		
O=C1CSC(C2=CCN(CC(O)c3cccc([N+](=O)[O-])c3)CC2)=NN1 (centres unmarked) [hydrochloride of compound 30, Hydrochloride of 2-[1-[2-hydroxy-2-(3-nitrophenyl)ethyl]-1,2,5,6-tetrahydropyrid-4-yl]-4H,6H-1,3,4-thiadiazin-5-one]	160		
O=C1NN=C(C2=CCN(CC(O)c3cccc(O)c3)CC2)CS1 (centres unmarked) [Compound 44, 5-[1-[2-Hydroxy-2-(3-hydroxyphenyl)ethyl]-1,2,5,6-tetrahydropyrid-4-yl]-3H,6H-1,3,4-thiadiazin-2-one]		39.9	101
O=C1CSC(C2=CCN(CC(O)c3ccc4c(c3)OCO4)CC2)=NN1 (centres unmarked) [Compound 32, 2-[1-[2-Hydroxy-2-[3,4-(methylenedioxy)phenyl]ethyl]-1,2,5,6-tetrahydropyrid-4-yl]-4H,6H-1,3,4-thiadiazin-5-one]		63.9	93.1
O=C1NN=C(C2=CCN(CC(O)c3ccc4ccccc4c3)CC2)CS1 (centres unmarked) [Compound 69, 5-[1-[2-Hydroxy-2-(2-naphthyl)ethyl]-1,2,5,6-tetrahydropyrid-4-yl]-3H, 6H-1,3,4-thiadiazin-2-one]		28.6	79.7
O=C1CNC(C2=CCN(CC(O)c3ccc([N+](=O)[O-])cc3)CC2)=NN1 (centres unmarked) [Compound 60, 4,5-Dihydro-3-[1-[2-hydroxy-2-(4-nitrophenyl)ethyl]-1,2,5,6-tetrahydropyrid-4-yl]-1,2,4-triazin-6(1H)-one]		43.8	92.6
O=C1CSC(C2=CCN(CC(O)c3cccc(O)c3)CC2)=NN1 (centres unmarked) [Compound 27, 2-[1-[2-Hydroxy-2-(3-hydroxyphenyl)ethyl]-1,2,5,6-tetrahydropyrid-4-yl]-4H,6H-1,3,4-thiadiazin-5-one]		63.1	98.7
O=C1NN=C(C2=CCN(CC(O)c3ccc(F)cc3)CC2)CS1 (centres unmarked) [Compound 46, 5-[1-[2-(4-Fluorophenyl)-2-hydroxyethyl]-1,2,5,6-tetrahydropyrid-4-yl]-3H,6H-1,3,4-thiadiazin-2-one]		61.9	81.6
O=C1CSC(C2=CCN(CC(O)c3ccc(Cl)cc3Cl)CC2)=NN1 (centres unmarked) [Compound 17, 2-[1-[2-(2,4-Dichlorophenyl)-2-hydroxyethyl]-1,2,5,6-tetrahydropyrid-4-yl]-4H,6H-1,3,4-thiadiazin-5-one]		45.0	85.8
O=C1CNC(C2=CCN(CC(O)c3ccc([N+](=O)[O-])cc3)CC2)=NN1 (centres unmarked) [hydrochloride of compound 60, Hydrochloride of 4,5-dihydro-3-[1-[2-hydroxy-2-(4-nitrophenyl)ethyl]-1,2,5,6-tetrahydropyrid-4-yl]-1,2,4-triazin-6(1H)-one]	226		
COc1ccc(C(O)CN2CC=C(C3=NNC(=O)CS3)CC2)cc1 (centres unmarked) [Compound 1, 2-[1-[2-Hydroxy-2-(4-methoxyphenyl)ethyl]-1,2,5,6-tetrahydropyrid-4-yl]-4H,6H-1,3,4-thiadiazin-5-one]		55.7	87.6
O=C1CNC(C2=CCN(CC(O)c3ccc(Cl)cc3)CC2)=NN1 (centres unmarked) [Compound 57, 3-[1-[2-(4-Chlorophenyl)-2-hydroxyethyl]-1,2,5,6-tetrahydropyrid-4-yl]-4,5-dihydro-1,2,4-triazin-6 (1H)-one]		46.8	94.9
O=C1CSC(C2=CCN(CC(O)c3ccc(Cl)cc3)CC2)=NN1 (centres unmarked) [hydrochloride of compound 13, Hydrochloride of 2-[1-[2-(4-chlorophenyl)-2-hydroxyethyl]-1,2,5,6-tetrahydropyrid-4-yl]-4H,6H-1,3,4-thiadiazin-5-one]	101		
N#Cc1ccc(C(O)CN2CC=C(C3=NNC(=O)CN3)CC2)cc1 (centres unmarked) [Compound 64, 3-[1-[2-(4-Cyanophenyl)-2-hydroxyethyl]-1,2,5,6-tetrahydropyrid-4-yl]-4,5-dihydro-1,2,4-triazin-6(1H)-one]		23.8	93
O=C1CNC(c2ccncc2)=NN1 [d, 4,5-Dihydro-3-(4-pyridyl)-1,2,4-triazin-6(1H)-one, reference compound]		4.6	112
Cc1ccc(C(O)CN2CC=C(C3=NNC(=O)C(C)S3)CC2)cc1 (centres unmarked) [Compound 22, 2-[1-[2-Hydroxy-2-(4-methylphenyl)ethyl]-1,2,5,6-tetrahydropyrid-4-yl]-6-methyl-4H,6H-1,3,4-thiadiazin-5-one]		30.4	76.7
O=C1CSC(C2=CCN(CC(O)c3cccc(Cl)c3)CC2)=NN1 (centres unmarked) [Compound 12, 2-[1-[2-(3-Chlorophenyl)-2-hydroxyethyl]-1,2,5,6-tetrahydropyrid-4-yl]-4H,6H-1,3,4-thiadiazin-5-one]		51.0	93.8
